Patent publication US11371097B2, “Articles for diagnosis of liver fibrosis” (THE GOVERNMENT OF THE UNITED STATES, as represented by THE …, priority 2015, dated 2022)
Values joined by “and” are separate entries in the source; they are usually repeats but may differ in a detail not shown here. Identical values can stand only once.

Key:
[1] = format: in vivo, Male Sprague-Dawley rats; conditions: rat, in vivo
[2] = tested on: 67 genes on the fibrosis gene panel; assay: Multiplexed fibrosis gene panel (QuantiGene 2.0 Plex / Bioplex) on liver RNA; conditions: liver RNA, individual animals; Carbon Tetrachloride 200, Bromobenzene 785, Dexamethasone 1 mg/kg
Description: mRNA is isolated and purified from lysed tissue biopsy specimens. The target mRNA is incubated with beads conjugated to capture probes (each probe is an oligonucleotides specific for one of the genes in the panel). The target is hybridized to the probe by a capture extender-capture probe interaction. Specific mRNA targets hybridize overnight to the respective beads. The signal is amplified by incubating mRNA-capture probe pairs by affixing an amplifier affixed to a biotinylated label probe. Streptavidin-conjugated phycoerythrin (SAPE) is bound to the biotinylated probe to amplify the signal. The signal is detected and quantified by Bioplex suspension array instrumentation, which measures the SAPE fluorescence signal proportional to the amount of mRNA transcripts captured by the bead.
Candidate genes identified by co-expression modules and pathway/network approaches were fabricated into a custom gene panel using a commercial source (the QuantiGene 2.0 Plex assay, Affymetrix, Santa Clara, Calif.). A total of 71 genes plus 3 housekeeping genes were selected. Using 150 ng RNA input, samples were processed following manufacturer's instructions for purified RNA with use of the HandHeld Magnetic Plate Washer. Plates were read immediately following the final wash using the BioPlex 200 instrument (BioRad, Hercules, Calif.). The following parameters were set on the BioPlex instrument: sample size=100 μL; DD Gate=5,000-25,000; Timeout=45 sec; Bead Event/Bead Region=100.
For each sample, the average signal intensity was determined as recommended by the manufacturer. Duplicates were averaged. The average background signal for each gene was subtracted. Assay limit of detection was determined by adding three standard deviations of assay background signals to the average intensity of the background control wells. All intensities lower than the limit of detection for each probe was set to one unit above the probe's limit of detection. Probes with all intensities below the assay limit of detection were removed from the final analysis. The test gene signal was divided by the average intensities of the three normalization genes (Gapdh, Hprt1, Ppib). For each test gene, the fold change was calculated by dividing the normalized value for the treated samples by the normalized value of the vehicle-treated controls. Fold changes were plotted as log2 fold change. Gene expression data were imported into Partek Genomics Suite 6.0 (Partek, Inc., St. Louis, Mo.). Principal component analysis was used for multivariate interpretation to determine sources of variation across sample groups (Joliffe I T, Morgan B J. Principal component analysis and exploratory factor analysis. Statistical methods in medical research 1992; 1(1):69-95). Differentially expressed genes were determined by analysis of variance (ANOVA) with contrasts, setting the ANOVA factors as toxicant and the histopathological endpoint of fibrosis (any score >0). ANOVA variables were fibrosis score 0 (none) vs. score of >0 (minimal, mild, moderate, and marked). For hierarchical biclustering, differentially expressed genes were standardized by setting the genes expressed to a mean of zero and scaling to a standard deviation of one. Euclidean geometry was used to cluster row and column dissimilarity using a method of average linkage.
Chemical-dose groups were down-selected based on histopathology to conform to the 96-well assay format of the multiplexed panel of presumptive fibrosis genes. Three of the four dose groups were evaluated for the fibrogenic chemicals allyl alcohol and 4,4′-methylenedianiline. A single dose was selected with group-matched vehicle controls for each of the remaining chemicals. […] The highest dose of bromobenzene was selected because the vacuolation pathology was only observed at this dose.
Isolated liver RNA was incubated with microbead-bound capture probes specific for the 71 presumptive fibrogenic genes and three housekeeping normalization genes.

liver = format: in vivo, Male Sprague-Dawley rats

C[C@@H]1C[C@H]2[C@@H]3CCC4=CC(=O)C=C[C@]4(C)[C@@]3(F)[C@@H](O)C[C@]2(C)[C@@]1(O)C(=O)CO [dexamethasone]
Body weight change [1]: Body weight loss occurred at all doses | Body weight gain over the five experimental dosing days [1]: decrease in body weight gain | Differential Expression of A2m [2]: −1.370 and −0.649 and −0.615 and −0.252 | Differential Expression of Angptl3 [2]: 0.029 and −0.467 and −0.241 | Differential Expression of Anxa2 [2]: 0.519 and 0.194 and −0.132 and 0.293 | Differential Expression of Apoc [2]: −0.250 and −0.067 and −0.469 and −0.542 | Differential Expression of Arf6 [2]: −0.268 and −0.346 and −0.401 and 0.005 | Differential Expression of Arpc1b [2]: −1.391 and −2.770 and −5.994 and −0.172 | Differential Expression of Arrb1 [2]: −0.840 and −2.152 and −3.043 and 0.703 | Differential Expression of C1qb [2]: −0.174 and −0.655 and −0.257 and −0.222 | Differential Expression of CD9 [2]: 0.155 and −0.656 and −0.280 and 0.387 | Differential Expression of CD53 [2]: −0.716 and −3.901 and −5.862 and 0.006 | Differential Expression of CP [2]: −0.134 and −0.634 and −0.952 and −0.558 | Differential Expression of Capg [2]: −0.558 and −0.744 and −0.772 and −0.404 | Differential Expression of Ccl2 [2]: −0.272 and 0.250 and 0.043 and 1.019 | Differential Expression of Col1a1 [2]: −4.640 and −3.775 and −5.473 and −0.928 | Differential Expression of Col1a2 [2]: −0.960 and −1.057 and −2.208 and −1.081 | Differential Expression of Col4a1 [2]: −1.039 and −1.035 and −1.397 and −0.880 | Differential Expression of Col5a2 [2]: −0.407 and −0.910 and −2.382 and 0.311 | Differential Expression of Ctgf [2]: −0.755 and 0.747 and −0.663 and 0.405 | Differential Expression of Cxcl1 [2]: 0.104 and 1.127 and 0.364 and 0.097 | Differential Expression of Cxcl12 [2]: −1.808 and −3.742 and −2.144 and −1.869 | Differential Expression of Cxcl16 [2]: −0.537 and −4.885 and 0.714 | Differential Expression of Cyba [2]: −0.998 and −1.793 and −1.244 and −0.956 | Differential Expression of Dsc2 [2]: −0.209 and −0.593 and −0.466 and −0.248 | Differential Expression of Fam102b [2]: −0.462 and −0.124 and −0.822 and −0.262 | Differential Expression of Fam105a [2]: −0.295 and 0.195 and −0.809 and −0.294 | Differential Expression of Fbn1 [2]: −1.213 and −1.784 and −2.160 and −1.736 | Differential Expression of Fn1 [2]: 0.397 and 0.181 and −0.334 and −0.170 | Differential Expression of Fstl1 [2]: −1.085 and −1.346 and −1.183 and −0.931 | Differential Expression of Fxyd5 [2]: −0.247 and −0.412 and −0.305 | Differential Expression of Gpnmb [2]: −0.018 and 1.304 and 0.968 and 1.447 | Differential Expression of Igfals [2]: −0.678 and −2.820 and −1.013 and −1.310 | Differential Expression of Igfbp1 [2]: 1.132 and 1.740 and 0.780 and 0.489 | Differential Expression of Igfbp2 [2]: −0.258 and −0.949 and −1.156 and −0.041 | Differential Expression of Igfbp3 [2]: −1.125 and −1.454 and −2.523 and −1.663 | Differential Expression of Itga1 [2]: −2.088 and −3.379 and −2.849 and −1.903 | Differential Expression of Itgb2 [2]: −1.330 and −2.265 and −1.982 and −0.802 | Differential Expression of Lame2 [2]: −0.132 and 0.260 and −1.038 and 0.536 | Differential Expression of Lbp [2]: 0.344 and −0.042 and 0.261 and −0.020 | Differential Expression of Len2 [2]: −0.470 and 0.418 and 0.883 and 0.535 | Differential Expression of Lgals1 [2]: 0.458 and −4.140 and −0.346 and 0.583 | Differential Expression of Lgals3 [2]: 0.011 and 0.320 and 0.370 and 0.526 | Differential Expression of Lgals3bp [2]: −1.477 and −0.782 and −1.281 and −0.669 | Differential Expression of Lox [2]: 0.278 and 0.412 and −0.164 | Differential Expression of Lrp1 [2]: −0.206 and −0.631 and −0.863 and −0.371 | Differential Expression of Lum [2]: 0.593 and 0.401 and −0.997 and −0.078 | Differential Expression of Mmp2 [2]: −0.245 and −1.273 and −0.990 and −0.583 | Differential Expression of Nid1 [2]: −1.271 (2×) and −1.374 and −1.155 | Differential Expression of Pcolce [2]: −1.293 and −1.196 and −1.572 and −0.246 | Differential Expression of Pkm2 [2]: −0.668 and −0.611 and −0.735 and −0.472 | Differential Expression of Plat [2]: 0.103 and 0.075 and −0.461 and −0.335 | Differential Expression of Plau [2]: −0.719 and −2.088 and −1.424 and −0.095 | Differential Expression of Plod2 [2]: −0.065 and 0.269 and −0.568 and −0.077 | Differential Expression of RT1-DMa [2]: 3.152 and 2.497 and 3.371 and 2.417 | Differential Expression of RT1-Da [2]: −4.927 and −7.563 and −4.272 and −3.443 | Differential Expression of S100A6 [2]: 0.650 and −0.047 and 0.843 and 0.695 | Differential Expression of S100A11 [2]: −0.377 and −0.570 and −0.732 and −0.465 | Differential Expression of Serpine1 [2]: 0.251 and 1.560 and 0.110 and 0.038 | Differential Expression of Serping1 [2]: 0.154 and 0.026 and −0.228 and 0.065 | Differential Expression of Slc25a24 [2]: −0.387 and −0.565 and −0.427 | Differential Expression of Sod2 [2]: −0.398 and −0.428 and −0.371 and −0.367 | Differential Expression of TagIn2 [2]: −0.486 and −0.918 and −0.563 and −0.566 | Differential Expression of Tgfb1 [2]: −1.193 and −1.526 and −1.328 and −1.429 | Differential Expression of Timp1 [2]: 0.026 and 0.464 and −0.134 and 1.004 | Differential Expression of Vhl [2]: −0.300 and −1.037 and −0.787 and 0.504 | Differential Expression of Vim [2]: −0.856 and −1.292 and −1.277 | Differential Expression of Vtn [2]: −0.111 and −0.294 and −0.579 and −0.572 | Tissue necrosis (liver; highest dose (300 mg/kg)): moderate tissue necrosis affecting >60-80% of the tissue in two animals | Combined histopathological scores as percent of animals with pathology (liver; rat, in vivo): dose-dependent increase in severe pathology | Cytoplasmic Alteration (liver; rat, in vivo): marked cytoplasmic alteration characteristic of glycogen accumulation | Histopathological evidence of vacuolation and/or glycogen accumulation (liver; rat, in vivo): correlated with histopathological evidence of vacuolation and/or glyocgen accumulation
